Values of other authors as cited in patent publication US20060094692A1, “Pharmaceutical formulations of camptothecins and process for making same” (BioNumerik Pharmaceuticals, Inc., priority 2004, published 2006).

Details: fraction of the potency of the lactone form

CC[C@@](O)(C(=O)O)c1cc2n(c(=O)c1CO)Cc1cc3ccccc3nc1-2 [carboxylate form of CPT]
antitumor potency relative to the lactone form of CPT: approximately one-tenth or less
